The structures appear in SMILES notation. pIC50: −log10 of the molar value. Where two headings read alike, the source gives them in different places. A value given as a limit tells only on which side of the number the result lay.

The term pIC50 denotes the IC50 on a negative log10 scale, so that one unit is a factor of ten.

This assay has as its target T1, truncated form of human Choline kinase α1 that includes residues 75-457 (Homo sapiens, UniProt P35790).
T1 construct: made in house
The assay is described as follows: Kinase Assay, coupled (ATP regeneration) LDH/PK assay, NADH absorbance. Type of assay: biochemical. As to conditions: read-out: IC50. The method, then:
Absorbance of NADH (340 nm) was measured over 30 min using a SpectraMax M5 (Molecular Devices). Initial reaction velocity (ΔA340/Δt) was calculated and plotted as a function of inhibitor concentration in a 2-fold dilution series. IC50 values were obtained by fitting the relative velocities to a dose-response model.

Setting [1] is: Examples not designated with an asterisk, footnote prints version 1 of the Kinase Assay.
[2] abbreviates: Examples designated with an asterisk (*): version 1 of the Kinase Assay, 200 nM enzyme.

T1 sequence (P35790 75-457): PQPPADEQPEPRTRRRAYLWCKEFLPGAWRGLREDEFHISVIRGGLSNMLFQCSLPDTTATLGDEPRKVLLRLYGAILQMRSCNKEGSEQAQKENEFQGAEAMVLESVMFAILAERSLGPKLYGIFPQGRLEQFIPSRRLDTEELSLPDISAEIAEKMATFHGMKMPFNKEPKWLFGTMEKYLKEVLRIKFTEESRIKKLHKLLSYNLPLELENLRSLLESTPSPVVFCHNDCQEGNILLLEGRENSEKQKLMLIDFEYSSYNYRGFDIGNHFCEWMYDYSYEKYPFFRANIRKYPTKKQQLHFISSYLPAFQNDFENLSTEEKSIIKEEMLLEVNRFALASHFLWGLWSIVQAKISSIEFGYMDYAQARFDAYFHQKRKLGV

In the case of `CN1CCCN(Cc2ccc(-c3ccc(C(=O)O)cc3Br)c(C#N)c2)CC1` [Example 157, 2-bromo-2′-cyano-4′-((4-methyl-1,4-diazepan-1-yl)methyl)-[1,1′-biphenyl]-4-carboxylic acid], the negative logarithm of the IC50 (pIC50) under setting [1] was over 4.30.

As for `CN1CCCN(Cc2ccc(-c3ccc(C(=O)N4CCN(CCO)CC4)cc3)c(C#N)c2)CC1` [Example 18, 4′-(4-(2-hydroxyethyl)piperazine-1-carbonyl)-4-((4-methyl-1,4-diazepan-1-yl)methyl)-[1,1′-biphenyl]-2-carbonitrile], the pIC50 under setting [1] is over 6.30.

`CN1CCCN(Cc2ccc(-c3ccc([N+](=O)[O-])cc3)c(C#N)c2)CC1` [Example 106, 4-((4-methyl-1,4-diazepan-1-yl)methyl)-4′-nitro-[1,1′-biphenyl]-2-carbonitrile]: the pIC50 under setting [1] was over 6.30.

In the case of `CC(=O)NNC(=O)CCc1ccc(-c2ccc(CN3CCCN(C)CC3)cc2)cc1` [Example 122, N′-acetyl-3-(4′-((4-methyl-1,4-diazepan-1-yl)methyl)-[1,1′-biphenyl]-4-yl)propanehydrazide], the pIC50 under setting [1] was over 5.70.

For the compound `CN1CCCN(Cc2ccc(-c3ccc(C(=O)N4CCCC(O)C4)cc3)c(C#N)c2)CC1` (stereo not shown) [Example 23, 4′-(3-hydroxypiperidine-1-carbonyl)-4-((4-methyl-1,4-diazepan-1-yl)methyl)-[1,1′-biphenyl]-2-carbonitrile], under setting [1], the pIC50 was over 6.30.

For the compound `CN1CCCN(Cc2ccc(-c3cc[nH]c3)c(C#N)c2)CC1` [Example 117, 5-((4-methyl-1,4-diazepan-1-yl)methyl)-2-(1H-pyrrol-3-yl)benzonitrile], under setting [1], the pIC50 is over 5.70.

Regarding `CN1CCCN(Cc2ccc(-c3ccc(CNCCNC(=O)OC(C)(C)C)cc3)c(C#N)c2)CC1` [Example 10, tert-butyl(2-(((2′-cyano-4′-((4-methyl-1,4-diazepan-1-yl)methyl)-[1,1′-biphenyl]-4-yl)methyl)amino)ethyl)carbamate], under setting [1], the pIC50 was over 6.30.

For the compound `CN1CCCN(Cc2ccc(-c3ccc(O)cc3)c(C#N)c2)CC1` [Example 107, 4′-hydroxy-4-((4-methyl-1,4-diazepan-1-yl)methyl)-[1,1′-biphenyl]-2-carbonitrile], the pIC50 under setting [1] is over 6.30.

`COc1cccc(-c2cc(C(=O)N3CCCN(C)CC3)ccc2-c2ccc(CN3CCCN(C)CC3)cc2C#N)c1` [Example 74, 3″-methoxy-4-((4-methyl-1,4-diazepan-1-yl)methyl)-4′-(4-methyl-1,4-diazepane-1-carbonyl)[1,1′:2′,1″-terphenyl]-2-carbonitrile]: under setting [1], the negative logarithm of the IC50 (pIC50) is over 6.30.

For the compound `CON(C)C(=O)c1ccc(-c2ccc(CN3CCCN(C)CC3)cc2C#N)cc1` [Example 35, 2′-cyano-N-methoxy-N-methyl-4′-((4-methyl-1,4-diazepan-1-yl)methyl)-[1,1′-biphenyl]-4-carboxamide], the pIC50 under setting [1] is over 6.30.

Take `CN1CCCN(Cc2ccc(-c3ccc(-c4nnc(N)s4)cc3)cc2)CC1` [Example 116, 5-(4′-((4-methyl-1,4-diazepan-1-yl)methyl)-[1,1′-biphenyl]-4-yl)-1,3,4-thiadiazol-2-amine]: the pIC50 under setting [1] was over 5.70.

For the compound `CN1CCCN(Cc2ccc(CCCCc3ccc(CN4CCCN(C)CC4)cc3)cc2)CC1` [Example 154, 1,4-bis(4-((4-methyl-1,4-diazepan-1-yl)methyl)phenyl)butane], the pIC50 under setting [2] is over 4.30.

For `CN1CCCN(Cc2ccc(-c3cncc(N)c3)c(C#N)c2)CC1` [Example 124, 2-(5-aminopyridin-3-yl)-5-((4-methyl-1,4-diazepan-1-yl)methyl)benzonitrile], the pIC50 under setting [1] is over 4.30.

With `CN1CCCN(Cc2ccc(-c3ccc(C(=O)N4CCN(C)CC4)cc3)c(C#N)c2)CC1` [Example 24, 4-((4-methyl-1,4-diazepan-1-yl)methyl)-4′-(4-methylpiperazine-1-carbonyl)-[1,1′-biphenyl]-2-carbonitrile], the pIC50 under setting [1] is over 6.30.

`CN1CCCN(Cc2ccc(-c3ccc(CN4CCCN(C)CC4)c(C#N)c3)cc2)CC1` [Example 155, 4,4′-bis((4-methyl-1,4-diazepan-1-yl)methyl)-[1,1′-biphenyl]-3-carbonitrile]: the pIC50 under setting [1] is over 6.30.

Turning to `CN1CCCN(Cc2ccc(-c3ccc(F)cc3)cc2)CC1` [Example 135, 1-((4′-fluoro-[1,1′-biphenyl]-4-yl)methyl)-4-methyl-1,4-diazepane], under setting [2], the negative logarithm of the IC50 (pIC50) is over 4.30.

Turning to `Cc1cc(-c2ccc(CN3CCCN(C)CC3)cc2)ccc1CN1CCCN(C)CC1` [Example 54, 4,4′-((3-methyl-[1,1′-biphenyl]-4,4′-diyl)bis(methylene))bis(1-methyl-1,4-diazepane)], the pIC50 under setting [1] is over 6.30.

Consider `COCCN1CCN(Cc2ccc(-c3ccc(CN4CCCN(C)CC4)cc3C#N)cc2)CC1` [Example 3, 4′-((4-(2-methoxyethyl)piperazin-1-yl)methyl)-4-((4-methyl-1,4-diazepan-1-yl)methyl)-[1,1′-biphenyl]-2-carbonitrile], for which the negative-log IC50 (pIC50) under setting [1] is over 6.30.

Take `CN1CCCN(Cc2ccc(-c3ccc(C#N)cc3)c(C#N)c2)CC1` [Example 105, 4-((4-methyl-1,4-diazepan-1-yl)methyl)-[1,1′-biphenyl]-2,4′-dicarbonitrile]: under setting [1], the pIC50 was over 6.30.

Take `CN1CCCN(Cc2ccc(-c3ccccc3C(N)=O)cc2)CC1` [Example 133, 4′-((4-methyl-1,4-diazepan-1-yl)methyl)-[1,1′-biphenyl]-2-carboxamide]: under setting [1], the pIC50 is over 4.30.

In the case of `CN1CCCN(Cc2ccc(-c3ccc(C(=O)N4CCCN(C)CC4)cc3-c3ccccc3)c(C#N)c2)CC1` [Example 65, 4-((4-methyl-1,4-diazepan-1-yl)methyl)-4′-(4-methyl-1,4-diazepane-1-carbonyl)-[1,1′:2′,1″-terphenyl]-2-carbonitrile], under setting [1], the pIC50 was over 6.30.

With `CN1CCCN(Cc2ccc(-c3ccc(CC(=O)O)cc3)c(C#N)c2)CC1` [Example 127, 2-(2′-cyano-4′-((4-methyl-1,4-diazepan-1-yl)methyl)-[1,1′-biphenyl]-4-yl)acetic acid], the negative logarithm of the IC50 (pIC50) under setting [1] is over 4.30.

In the case of `CC(=O)N1CCN(C(=O)c2ccc(-c3ccc(CN4CCCN(C)CC4)cc3)cc2)CC1` [Example 38, 1-(4-(4′-((4-methyl-1,4-diazepan-1-yl)methyl)-[1,1′-biphenyl]-4-carbonyl)piperazin-1-yl)ethanone], the pIC50 under setting [1] was over 4.30.

For `CN1CCCN(Cc2ccc(-c3ccc(C(N)=O)cc3)c(C#N)c2)CC1` [Example 28, 2′-cyano-4′-((4-methyl-1,4-diazepan-1-yl)methyl)-[1,1′-biphenyl]-4-carboxamide], the negative logarithm of the IC50 (pIC50) under setting [1] was over 6.30.

In the case of `CN1CCCN(Cc2ccc(N3CCS(=O)(=O)CC3)cc2)CC1` [Example 145, 4-(4-((4-methyl-1,4-diazepan-1-yl)methyl)phenyl)thiomorpholine 1,1-dioxide], the pIC50 under setting [2] is over 4.30.

As for `CN1CCCN(Cc2ccc(-c3ccc(CCC(=O)O)cc3)cc2)CC1` [Example 132, 3-(4′-((4-methyl-1,4-diazepan-1-yl)methyl)-[1,1′-biphenyl]-4-yl)propanoic acid], the negative-log IC50 (pIC50) under setting [1] is over 4.30.

Turning to `CC(=O)N1CC=C(c2ccc(CN3CCCN(C)CC3)cc2C#N)CC1` [Example 103, 2-(1-acetyl-1,2,3,6-tetrahydropyridin-4-yl)-5-((4-methyl-1,4-diazepan-1-yl)methyl)benzonitrile], the pIC50 under setting [1] was over 6.30.

For `CN1CCCN(Cc2ccc(-c3ccc(CC(N)C(=O)O)cc3)c(C#N)c2)CC1` (stereo not shown) [Example 100, 2-amino-3-(2′-cyano-4′-((4-methyl-1,4-diazepan-1-yl)methyl)-[1,1′-biphenyl]-4-yl)propanoic acid], the negative-log IC50 (pIC50) under setting [1] was over 6.30.

As to `CN1CCCN(Cc2ccc(-c3ccc(C(N)=O)cc3F)c(C#N)c2)CC1` [Example 96, 2′-cyano-2-fluoro-4′-((4-methyl-1,4-diazepan-1-yl)methyl)-[1,1′-biphenyl]-4-carboxamide], the pIC50 under setting [1] was over 6.30.

With `CN1CCCN(Cc2ccc(-c3ccc(C(=O)N4CCCN(C)CC4)cc3-c3ccc(C(=O)N(C)C)cc3)c(C#N)c2)CC1` [Example 76], the negative logarithm of the IC50 (pIC50) under setting [1] was over 5.70.

`CN1CCCN(Cc2ccc(-c3ccc(C(=O)O)cc3)cc2)CC1` [Example 159, 4′-((4-methyl-1,4-diazepan-1-yl)methyl)-[1,1′-biphenyl]-4-carboxylic acid]: the pIC50 under setting [2] was over 4.30.

Regarding `COC(=O)c1ccc(-c2ccc(CN3CCCN(C)CC3)cc2C#N)c(Br)c1` [Example 156, methyl 2-bromo-2′-cyano-4′-((4-methyl-1,4-diazepan-1-yl)methyl)-[1,1′-biphenyl]-4-carboxylate], under setting [1], the pIC50 was over 5.70.

In the case of `CCOC(=O)Cc1ccc(-c2ccc(CN3CCCN(C)CC3)cc2)cc1` [Example 130, ethyl 2-(4′-((4-methyl-1,4-diazepan-1-yl)methyl)-[1,1′-biphenyl]-4-yl)acetate], the pIC50 under setting [1] was over 4.30.

As to `CN1CCCN(Cc2ccc(N3CCCC3=O)cc2)CC1` [Example 144, 1-(4-((4-methyl-1,4-diazepan-1-yl)methyl)phenyl)pyrrolidin-2-one], the pIC50 under setting [2] was over 4.30.

Regarding `CN1CCCN(Cc2ccc(-c3ccc(C(=O)N4CCCN(C)CC4)cc3-c3ccc(CC#N)cc3)c(C#N)c2)CC1` [Example 67, 4″-(cyanomethyl)-4-((4-methyl-1,4-diazepan-1-yl)methyl)-4′-(4-methyl-1,4-diazepane-1-carbonyl)-[1,1′:2′,1″-terphenyl]-2-carbonitrile], under setting [1], the pIC50 was over 6.30.

As to `CC(=O)N1CCN(c2ccc(-c3ccc(CN4CCCN(C)CC4)cc3)cn2)CC1` [Example 120, 1-(4-(5-(4-((4-methyl-1,4-diazepan-1-yl)methyl)phenyl)pyridin-2-yl)piperazin-1-yl)ethanone], the pIC50 under setting [1] is over 5.70.

On to `CN1CCCN(Cc2ccc(-c3ccc(N)nc3)c(C#N)c2)CC1` [Example 111, 2-(6-aminopyridin-3-yl)-5-((4-methyl-1,4-diazepan-1-yl)methyl)benzonitrile], for which the negative-log IC50 (pIC50) under setting [1] was over 6.30.
